In publication PMC9609070 (ACS Omega, 2022):
Read-outs that look alike come from different tables or passages of the source.

Legend:
[1] = Apparent thermodynamic functions of dissolution; format: physicochemical; details: Thm=303.0 K
[2] = Preferential solvation analysis by inverse Kirkwood–Buff integrals; format: physicochemical; details: NMP+water, T=298.15 K
[3] = Hildebrand solubility parameter of meloxicam; format: physicochemical; details: expected from the solubility maximum in neat NMP; T=298.15 K
Solid-phase analyses = format: physicochemical; details: after saturation in neat water, x1=0.50 mixture and neat NMP
[4] = neat water, x1=0.000, cited from earlier work
[5] = cited from earlier work
[6] = neat water, x1=0.000, cited from earlier work; remark: listed apart in the source
[7] = cited from earlier work; remark: listed apart in the source
[8] = calculated by Fedors' groups contribution method; cited from earlier work

## Cc1cnc(NC(=O)C2=C(O)c3ccccc3S(=O)(=O)N2C)s1 [Meloxicam, 4-hydroxy-2-methyl-N-(5-methyl-2-thiazolyl)-2H-1,2-benzothiazine-3-carboxamide-1,1-dioxide]
[1]; NMP+water, x1=0.100
  TΔsolnS°: 0.52 kJ·mol^–1
  ΔsolnG° (apparent Gibbs energy of dissolution): 27.40 kJ·mol^–1
  ΔsolnH° (apparent enthalpy of dissolution): 27.92 kJ·mol^–1
  ΔsolnS° (apparent entropy of dissolution): 1.71 J·mol^–1·K^–1
[1]; NMP+water, x1=0.200
  TΔsolnS°: 2.55 kJ·mol^–1
  ΔsolnG° (apparent Gibbs energy of dissolution): 22.34 kJ·mol^–1
  ΔsolnH° (apparent enthalpy of dissolution): 24.89 kJ·mol^–1
  ΔsolnS° (apparent entropy of dissolution): 8.41 J·mol^–1·K^–1
[1]; NMP+water, x1=0.300
  TΔsolnS°: 3.08 kJ·mol^–1
  ΔsolnG° (apparent Gibbs energy of dissolution): 18.38 kJ·mol^–1
  ΔsolnH° (apparent enthalpy of dissolution): 21.46 kJ·mol^–1
  ΔsolnS° (apparent entropy of dissolution): 10.18 J·mol^–1·K^–1
[1]; NMP+water, x1=0.400
  TΔsolnS°: 2.09 kJ·mol^–1
  ΔsolnG° (apparent Gibbs energy of dissolution): 15.31 kJ·mol^–1
  ΔsolnH° (apparent enthalpy of dissolution): 17.40 kJ·mol^–1
  ΔsolnS° (apparent entropy of dissolution): 6.89 J·mol^–1·K^–1
[1]; NMP+water, x1=0.500
  TΔsolnS°: 1.77 kJ·mol^–1
  ΔsolnG° (apparent Gibbs energy of dissolution): 13.00 kJ·mol^–1
  ΔsolnH° (apparent enthalpy of dissolution): 14.78 kJ·mol^–1
  ΔsolnS° (apparent entropy of dissolution): 5.85 J·mol^–1·K^–1
[1]; NMP+water, x1=0.600
  TΔsolnS°: 6.45 kJ·mol^–1
  ΔsolnG° (apparent Gibbs energy of dissolution): 11.42 kJ·mol^–1
  ΔsolnH° (apparent enthalpy of dissolution): 17.87 kJ·mol^–1
  ΔsolnS° (apparent entropy of dissolution): 21.28 J·mol^–1·K^–1
[1]; NMP+water, x1=0.700
  TΔsolnS°: 15.75 kJ·mol^–1
  ΔsolnG° (apparent Gibbs energy of dissolution): 10.45 kJ·mol^–1
  ΔsolnH° (apparent enthalpy of dissolution): 26.20 kJ·mol^–1
  ΔsolnS° (apparent entropy of dissolution): 51.98 J·mol^–1·K^–1
[1]; NMP+water, x1=0.800
  TΔsolnS°: 14.58 kJ·mol^–1
  ΔsolnG° (apparent Gibbs energy of dissolution): 9.52 kJ·mol^–1
  ΔsolnH° (apparent enthalpy of dissolution): 24.10 kJ·mol^–1
  ΔsolnS° (apparent entropy of dissolution): 48.13 J·mol^–1·K^–1
[1]; NMP+water, x1=0.900
  TΔsolnS°: 10.89 kJ·mol^–1
  ΔsolnG° (apparent Gibbs energy of dissolution): 8.60 kJ·mol^–1
  ΔsolnH° (apparent enthalpy of dissolution): 19.49 kJ·mol^–1
  ΔsolnS° (apparent entropy of dissolution): 35.93 J·mol^–1·K^–1
[1]; neat NMP, x1=1.000
  TΔsolnS°: 13.06 kJ·mol^–1
  ΔsolnG° (apparent Gibbs energy of dissolution): 7.99 kJ·mol^–1
  ΔsolnH° (apparent enthalpy of dissolution): 21.05 kJ·mol^–1
  ΔsolnS° (apparent entropy of dissolution): 43.10 J·mol^–1·K^–1
[2]; x1=0.00
  100 δx1,3 (preferential solvation parameter by NMP): 0.00
  D (derivative of Gibbs energy of transfer vs x1): –71.31 kJ·mol^–1
  G1,3 (Kirkwood–Buff integral): –702.7 cm^3·mol^–1
  G2,3 (Kirkwood–Buff integral): –182.2 cm^3·mol^–1
[2]; x1=0.05
  100 δx1,3 (preferential solvation parameter by NMP): –3.21
  D (derivative of Gibbs energy of transfer vs x1): –64.29 kJ·mol^–1
  G1,3 (Kirkwood–Buff integral): –669.9 cm^3·mol^–1
  G2,3 (Kirkwood–Buff integral): –311.3 cm^3·mol^–1
  δx1,3 (preferential solvation parameter by NMP): −3.21 × 10^–2
[2]; x1=0.10
  100 δx1,3 (preferential solvation parameter by NMP): –3.19
  D (derivative of Gibbs energy of transfer vs x1): –57.63 kJ·mol^–1
  G1,3 (Kirkwood–Buff integral): –596.6 cm^3·mol^–1
  G2,3 (Kirkwood–Buff integral): –417.0 cm^3·mol^–1
  δx1,3 (preferential solvation parameter by NMP): −3.19 × 10^–2
[2]; x1=0.15
  100 δx1,3 (preferential solvation parameter by NMP): –0.64
  D (derivative of Gibbs energy of transfer vs x1): –51.33 kJ·mol^–1
  G1,3 (Kirkwood–Buff integral): –513.2 cm^3·mol^–1
  G2,3 (Kirkwood–Buff integral): –484.4 cm^3·mol^–1
[2]; x1=0.20
  100 δx1,3 (preferential solvation parameter by NMP): 1.92
  D (derivative of Gibbs energy of transfer vs x1): –45.42 kJ·mol^–1
  G1,3 (Kirkwood–Buff integral): –438.6 cm^3·mol^–1
  G2,3 (Kirkwood–Buff integral): –519.2 cm^3·mol^–1
[2]; x1=0.25
  100 δx1,3 (preferential solvation parameter by NMP): 3.70
  D (derivative of Gibbs energy of transfer vs x1): –39.89 kJ·mol^–1
  G1,3 (Kirkwood–Buff integral): –378.9 cm^3·mol^–1
  G2,3 (Kirkwood–Buff integral): –532.6 cm^3·mol^–1
[2]; x1=0.30
  100 δx1,3 (preferential solvation parameter by NMP): 4.75
  D (derivative of Gibbs energy of transfer vs x1): –34.76 kJ·mol^–1
  G1,3 (Kirkwood–Buff integral): –332.9 cm^3·mol^–1
  G2,3 (Kirkwood–Buff integral): –533.5 cm^3·mol^–1
[2]; x1=0.35
  100 δx1,3 (preferential solvation parameter by NMP): 5.27
  D (derivative of Gibbs energy of transfer vs x1): –30.04 kJ·mol^–1
  G1,3 (Kirkwood–Buff integral): –298.0 cm^3·mol^–1
  G2,3 (Kirkwood–Buff integral): –527.4 cm^3·mol^–1
[2]; x1=0.40 (maximum)
  δx1,3 (preferential solvation parameter by NMP): 5.41 × 10^–2
[2]; x1=0.40
  100 δx1,3 (preferential solvation parameter by NMP): 5.41
  D (derivative of Gibbs energy of transfer vs x1): –25.73 kJ·mol^–1
  G1,3 (Kirkwood–Buff integral): –271.3 cm^3·mol^–1
  G2,3 (Kirkwood–Buff integral): –517.0 cm^3·mol^–1
[2]; x1=0.45
  100 δx1,3 (preferential solvation parameter by NMP): 5.28
  D (derivative of Gibbs energy of transfer vs x1): –21.85 kJ·mol^–1
  G1,3 (Kirkwood–Buff integral): –250.7 cm^3·mol^–1
  G2,3 (Kirkwood–Buff integral): –503.6 cm^3·mol^–1
[2]; x1=0.50
  100 δx1,3 (preferential solvation parameter by NMP): 4.96
  D (derivative of Gibbs energy of transfer vs x1): –18.40 kJ·mol^–1
  G1,3 (Kirkwood–Buff integral): –234.5 cm^3·mol^–1
  G2,3 (Kirkwood–Buff integral): –487.7 cm^3·mol^–1
[2]; x1=0.55
  100 δx1,3 (preferential solvation parameter by NMP): 4.49
  D (derivative of Gibbs energy of transfer vs x1): –15.39 kJ·mol^–1
  G1,3 (Kirkwood–Buff integral): –221.7 cm^3·mol^–1
  G2,3 (Kirkwood–Buff integral): –469.5 cm^3·mol^–1
[2]; x1=0.60
  100 δx1,3 (preferential solvation parameter by NMP): 3.93
  D (derivative of Gibbs energy of transfer vs x1): –12.84 kJ·mol^–1
  G1,3 (Kirkwood–Buff integral): –211.6 cm^3·mol^–1
  G2,3 (Kirkwood–Buff integral): –449.4 cm^3·mol^–1
[2]; x1=0.65
  100 δx1,3 (preferential solvation parameter by NMP): 3.34
  D (derivative of Gibbs energy of transfer vs x1): –10.75 kJ·mol^–1
  G1,3 (Kirkwood–Buff integral): –203.7 cm^3·mol^–1
  G2,3 (Kirkwood–Buff integral): –428.7 cm^3·mol^–1
[2]; x1=0.70
  100 δx1,3 (preferential solvation parameter by NMP): 2.76
  D (derivative of Gibbs energy of transfer vs x1): –9.13 kJ·mol^–1
  G1,3 (Kirkwood–Buff integral): –197.7 cm^3·mol^–1
  G2,3 (Kirkwood–Buff integral): –409.5 cm^3·mol^–1
[2]; x1=0.75
  100 δx1,3 (preferential solvation parameter by NMP): 2.24
  D (derivative of Gibbs energy of transfer vs x1): –7.99 kJ·mol^–1
  G1,3 (Kirkwood–Buff integral): –193.3 cm^3·mol^–1
  G2,3 (Kirkwood–Buff integral): –394.9 cm^3·mol^–1
[2]; x1=0.80
  100 δx1,3 (preferential solvation parameter by NMP): 1.81
  D (derivative of Gibbs energy of transfer vs x1): –7.33 kJ·mol^–1
  G1,3 (Kirkwood–Buff integral): –190.1 cm^3·mol^–1
  G2,3 (Kirkwood–Buff integral): –388.5 cm^3·mol^–1
[2]; x1=0.85
  100 δx1,3 (preferential solvation parameter by NMP): 1.44
  D (derivative of Gibbs energy of transfer vs x1): –7.18 kJ·mol^–1
  G1,3 (Kirkwood–Buff integral): –187.8 cm^3·mol^–1
  G2,3 (Kirkwood–Buff integral): –394.4 cm^3·mol^–1
[2]; x1=0.90
  100 δx1,3 (preferential solvation parameter by NMP): 1.10
  D (derivative of Gibbs energy of transfer vs x1): –7.54 kJ·mol^–1
  G1,3 (Kirkwood–Buff integral): –186.0 cm^3·mol^–1
  G2,3 (Kirkwood–Buff integral): –417.8 cm^3·mol^–1
[2]; x1=0.95
  100 δx1,3 (preferential solvation parameter by NMP): 0.69
  D (derivative of Gibbs energy of transfer vs x1): –8.41 kJ·mol^–1
  G1,3 (Kirkwood–Buff integral): –184.2 cm^3·mol^–1
  G2,3 (Kirkwood–Buff integral): –467.3 cm^3·mol^–1
[2]; x1=1.00
  100 δx1,3 (preferential solvation parameter by NMP): 0.00
  D (derivative of Gibbs energy of transfer vs x1): –9.81 kJ·mol^–1
  G1,3 (Kirkwood–Buff integral): –181.8 cm^3·mol^–1
  G2,3 (Kirkwood–Buff integral): –563.4 cm^3·mol^–1
[3]
  Hildebrand solubility parameter δ3, solubility-based: lower than 23.6 MPa^1/2
Solid-phase analyses
  Crystal form after saturation (XRD, FTIR): did not suffer crystal polymorphic transitions or solvate formation
[4]; T=293.15 K
  Activity coefficient (γ3): 2396
[4]; T=298.15 K
  Activity coefficient (γ3): 2708
[4]; T=303.15 K
  Activity coefficient (γ3): 3055
[4]; T=308.15 K
  Activity coefficient (γ3): 3376
[4]; T=313.15 K
  Activity coefficient (γ3): 3755
[5]; T=293.15 K
  Ideal mole fraction solubility (x3^id): 2.607 × 10^–3 mole fraction
[5]; T=298.15 K
  Ideal mole fraction solubility (x3^id): 3.079 × 10^–3 mole fraction
[5]; T=303.15 K
  Ideal mole fraction solubility (x3^id): 3.627 × 10^–3 mole fraction
[5]; T=308.15 K
  Ideal mole fraction solubility (x3^id): 4.260 × 10^–3 mole fraction
[5]; T=313.15 K
  Ideal mole fraction solubility (x3^id): 4.991 × 10^–3 mole fraction
[5]; ideal, Thm=303.0 K
  TΔsolnS°: 10.61 kJ·mol^–1
  ΔsolnG° (apparent Gibbs energy of dissolution): 14.16 kJ·mol^–1
  ΔsolnH° (apparent enthalpy of dissolution): 24.78 kJ·mol^–1
  ΔsolnS° (apparent entropy of dissolution): 35.03 J·mol^–1·K^–1
[6]; T=293.15 K
  Experimental molar solubility (C): 6.027 × 10^–5 mol·dm^–3
  Experimental mole fraction solubility (x3): 1.088 × 10^–6 mole fraction
[6]; T=298.15 K
  Experimental molar solubility (C): 6.290 × 10^–5 mol·dm^–3
  Experimental mole fraction solubility (x3): 1.137 × 10^–6 mole fraction
[6]; T=303.15 K
  Experimental molar solubility (C): 6.557 × 10^–5 mol·dm^–3
  Experimental mole fraction solubility (x3): 1.187 × 10^–6 mole fraction
[6]; T=308.15 K
  Experimental molar solubility (C): 6.962 × 10^–5 mol·dm^–3
  Experimental mole fraction solubility (x3): 1.262 × 10^–6 mole fraction
[6]; T=313.15 K
  Experimental mole fraction solubility (x3): 1.329 × 10^–6 mole fraction
[7]; Carbitol as cosolvent
  Solubility-increasing effect: 1144 times
[7]; N,N-dimethylformamide (DMF) as cosolvent
  Solubility-increasing effect: 11,233 times
[7]; N-methylformamide (NMF) as cosolvent
  Solubility-increasing effect: 1399 times
[7]; dimethyl sulfoxide (DMSO) as cosolvent
  Solubility-increasing effect: 6956 times
[8]
  Hildebrand solubility parameter δ3: 32.1 MPa^1/2
